Results as given in patent US7396939B2, “3-cyclopropyl-4-(3-amino-2-methylbenzoyl)pyrazoles and their use as herbicides” (Bayer CropScience GmbH, priority 2004, dated 2008).
Read-outs that look alike come from different tables or passages of the source.

Tests used:
Format in all cases: in vivo
Galium aparine (GALAP) [1] = test: Post-emergence action against harmful plants; details: post-emergence application
Protocol: (§1) Seeds of monocotyledonous and dicotyledonous harmful plants and seeds of corn, soybean and wheat are placed into sandy loam in cardboard pots, covered with soil and grown in the greenhouse under good growth conditions. Two to three weeks after sowing the harmful plants and the crop plants are treated in the three-leaf stage. The compounds according to the invention and the prior-art compounds, formulated as wettable powders or emulsion concentrates, are sprayed onto the green plant parts at an application rate of 600 to 800 l of water/ha (converted) in one of the dosages given in tables 1 to 10. After the test plants have remained in the greenhouse under optimum growth conditions for 3 to 4 weeks, the effect of the compounds is rated in comparison to compounds disclosed in the prior art.

[2] = test system: Matricaria inodora (MATIN); test: Post-emergence action against harmful plants; details: for pest or weed control at 80 g/ha / pest or weed control at 320 g/ha: Tripleurospermum inodorum, read-out: Herbicidal action MATIN; for pest or weed control at 320 g/ha / Herbicidal action MATIN: 320 g of a.i./ha; for Herbicidal action MATIN: Comparative Table 10
Protocol: as §1

Stellaria media (STEME) = test: Post-emergence action against harmful plants; details: post-emergence application, 80 g of a.i./ha
Protocol: as §1

[3] = test system: Glycine max (soybean) (GLXMA); test: Post-emergence damage of crop plants; details: post-emergence application
Protocol: as §1

Zea mays (corn) (ZEAMX) [4] = test: Post-emergence damage of crop plants; details: post-emergence application
Protocol: as §1

[5] = test system: Digitaria sanguinalis (DIGSA); test: Post-emergence action against harmful plants; details: post-emergence application, 80 g of a.i./ha, Comparative Table 1
Protocol: as §1

[6] = test system: Echinochloa crus galli (ECHCG); test: Post-emergence action against harmful plants; details: post-emergence application
Protocol: as §1

Viola tricolor (VIOTR) = test: Post-emergence action against harmful plants; details: post-emergence application, 80 g of a.i./ha, Comparative Table 1
Protocol: as §1

Avena fatua (AVEFA) = test: Post-emergence action against harmful plants; details: post-emergence application, 320 g of a.i./ha, Comparative Table 8
Protocol: as §1

[7] = test system: Pharbitis purpureum (PHBPU); test: Post-emergence action against harmful plants; details: post-emergence application, 320 g of a.i./ha
Protocol: as §1

Veronica persica (VERPE) = test: Post-emergence action against harmful plants; details: post-emergence application
Protocol: as §1

Galium aparine (GALAP) [8] = test: Pre-emergence action against harmful plants; details: pre-emergence application, 320 g of a.i./ha, Comparative Table 7
Description: (§2) Seeds of monocotyledonous and dicotyledonous harmful plants and seeds of corn, soybean and wheat are placed into sandy loam in cardboard pots and covered with soil. The compounds according to the invention and the prior-art compounds, formulated as wettable powders or emulsion concentrates, are then applied to the surface of the covering soil as an aqueous suspension or emulsion at an application rate of 600 to 800 l of water/ha (converted) in one of the dosages given in tables 1 to 10. After the treatment, the pots are placed in a greenhouse and kept under good growth conditions for the harmful plants and crop plants. Visual scoring of plant or emergence damage is carried out after the test plants have emerged after an experimental period of 3 to 4 weeks.

Zea mays (corn) (ZEAMX) [9] = test: Pre-emergence damage of crop plants; details: pre-emergence application, 320 g of a.i./ha, Comparative Table 7
Description: as §2

[10] = test system: Oryza sativa (rice) (ORYSA); test: Damage of rice under paddy rice conditions; details: post-emergence application
Protocol: (§3) Rice plants and harmful plants typical in rice crops are grown in the greenhouse under paddy rice conditions (water level: 2-3 cm). After the treatment with the compounds according to the invention and the prior-art compounds, the test plants are placed in the greenhouse under optimum growth conditions and kept like this during the entire test. About three weeks after the application, evaluation is carried out by visual scoring of the damage to the plants.

[11] = test system: Triticum aestivum (wheat) (TRZAS); test: Post-emergence damage of crop plants; details: post-emergence application, 320 g of a.i./ha, Comparative Table 6
Protocol: as §1

Setaria viridis (SETVI) = test: Action against harmful plants in the rice test; details: post-emergence application, 320 g of a.i./ha, Comparative Table 5
Protocol: as §3

[12] = 80 g of a.i./ha, Comparative Table 3
[13] = post-emergence application, 80 g of a.i./ha, Comparative Table 3
[14] = 80 g of a.i./ha, Comparative Table 1
[15] = post-emergence application, 80 g of a.i./ha, Comparative Table 1
[16] = 320 g of a.i./ha, Comparative Table 10
[17] = post-emergence application, Comparative Table 8
[18] = 320 g of a.i./ha, Comparative Table 8
[19] = post-emergence application, Comparative Table 9
[20] = 320 g of a.i./ha, Comparative Table 9
[21] = 20 g of a.i./ha, Comparative Table 2
[22] = 320 g of a.i./ha, Comparative Table 6
[23] = post-emergence application, Comparative Table 6
[24] = 320 g of a.i./ha, Comparative Table 5
[25] = 80 g of a.i./ha, Comparative Table 4

C=CCNc1c(S(C)(=O)=O)ccc(C(=O)c2c(C)nn(C)c2O)c1C [S4]
Herbicidal action GALAP (Galium aparine (GALAP) [1]; [12]): 80% | pest or weed control at 80 g/ha [2, 13]: 30% | Herbicidal action STEME (Stellaria media (STEME); Comparative Table 3): 100% | Damage to the crop plants GLXMA [3, 12]: 50% | Damage to the crop plants ZEAMX (Zea mays (corn) (ZEAMX) [4]; [12]): 30%

CCCNc1c(S(C)(=O)=O)ccc(C(=O)c2c(C)nn(C)c2O)c1C [S2]
Herbicidal action DIGSA [5]: 80% | Herbicidal action ECHCG [6, 14]: 80% | pest or weed control at 80 g/ha [2, 15]: 30% | Herbicidal action VIOTR (Viola tricolor (VIOTR)): 80% | Damage to the crop plants ZEAMX (Zea mays (corn) (ZEAMX) [4]; [14]): 60%

C=CCNc1c(S(C)(=O)=O)ccc(C(=O)c2c(C3CC3)nn(C)c2O)c1C [No. 5]
Herbicidal action GALAP (Galium aparine (GALAP) [1]; [12]): 80% | pest or weed control at 80 g/ha [2, 13]: 50% | Herbicidal action STEME (Stellaria media (STEME); Comparative Table 3): 100% | Damage to the crop plants GLXMA [3, 12]: 0% | Damage to the crop plants ZEAMX (Zea mays (corn) (ZEAMX) [4]; [12]): 10%

CCn1nc(C)c(C(=O)c2ccc(S(C)(=O)=O)c(NCCOC)c2C)c1O [S7]
Herbicidal action AVEFA (Avena fatua (AVEFA)): 50% | Herbicidal action ECHCG [6, 16]: 90% | pest or weed control at 320 g/ha [2, 17]: 70% | Herbicidal action MATIN ([2]; post-emergence application): 70% | Herbicidal action PHBPU ([7]; Comparative Table 10): 40% | Herbicidal action VERPE (Veronica persica (VERPE); [16]): 90% | Damage to the crop plants GLXMA [3, 18]: 60% | Damage to the crop plants GLXMA [3, 16]: 60% | Damage to the crop plants ZEAMX (Zea mays (corn) (ZEAMX) [4]; [18]): 20% | Damage to the crop plants ZEAMX (Zea mays (corn) (ZEAMX) [4]; [16]): 20% | Herbicidal action GALAP (Galium aparine (GALAP) [8]): 70% | Damage to the crop plants ZEAMX (Zea mays (corn) (ZEAMX) [9]): 20%

CCOCCNc1c(S(C)(=O)=O)ccc(C(=O)c2c(C3CC3)nn(C)c2O)c1C [No. 10]
Herbicidal action ECHCG [6, 16]: 100% | pest or weed control at 320 g/ha [2, 19]: 100% | Herbicidal action MATIN ([2]; post-emergence application): 100% | Herbicidal action PHBPU ([7]; Comparative Table 9): 100% | Herbicidal action PHBPU ([7]; Comparative Table 10): 100% | Herbicidal action VERPE (Veronica persica (VERPE); [20]): 100% | Herbicidal action VERPE (Veronica persica (VERPE); [16]): 100% | Damage to the crop plants GLXMA [3, 20]: 20% | Damage to the crop plants GLXMA [3, 16]: 20% | Damage to the crop plants ZEAMX (Zea mays (corn) (ZEAMX) [4]; [16]): 0%

CCCCNc1c(S(C)(=O)=O)ccc(C(=O)c2c(C)nn(C)c2O)c1C [S3]
Herbicidal action GALAP (Galium aparine (GALAP) [1]; [21]): 40% | Herbicidal action VERPE (Veronica persica (VERPE); [21]): 20% | Damage to the crop plants GLXMA [3, 21]: 20% | Damage to the crop plants ORYSA [10, 21]: 30%

CCOCCNc1c(S(C)(=O)=O)ccc(C(=O)c2c(C)nn(C)c2O)c1C [S1]
pest or weed control at 320 g/ha [2, 19]: 60% | Herbicidal action PHBPU ([7]; Comparative Table 9): 90% | Herbicidal action VERPE (Veronica persica (VERPE); [20]): 100% | Damage to the crop plants GLXMA [3, 20]: 90%

COCCNc1c(S(C)(=O)=O)ccc(C(=O)c2c(C3CC3)nn(C)c2O)c1C [No. 9]
Herbicidal action AVEFA (Avena fatua (AVEFA)): 70% | pest or weed control at 320 g/ha [2, 17]: 80% | Damage to the crop plants GLXMA [3, 18]: 20% | Damage to the crop plants ZEAMX (Zea mays (corn) (ZEAMX) [4]; [18]): 0% | Herbicidal action GALAP (Galium aparine (GALAP) [8]): 80% | Damage to the crop plants ZEAMX (Zea mays (corn) (ZEAMX) [9]): 0%

CCn1nc(C)c(C(=O)c2ccc(S(C)(=O)=O)c(N3CCCC3)c2C)c1O [S6]
Herbicidal action ECHCG [6, 22]: 50% | pest or weed control at 320 g/ha [2, 23]: 0% | Damage to the crop plants GLXMA [3, 22]: 20% | Damage to the crop plants TRZAS [11]: 10% | Damage to the crop plants ORYSA [10, 24]: 20% | Herbicidal action SETVI (Setaria viridis (SETVI)): 90%

CCCCNc1c(S(C)(=O)=O)ccc(C(=O)c2c(C3CC3)nn(C)c2O)c1C [No. 4]
Herbicidal action GALAP (Galium aparine (GALAP) [1]; [21]): 80% | Herbicidal action VERPE (Veronica persica (VERPE); [21]): 60% | Damage to the crop plants GLXMA [3, 21]: 0% | Damage to the crop plants ORYSA [10, 21]: 0%

Cc1c(C(=O)c2c(C3CC3)nn(C)c2O)ccc(S(C)(=O)=O)c1N1CCCCC1 [No. 15]
pest or weed control at 80 g/ha ([2]; post-emergence): 60% | Herbicidal action STEME (Stellaria media (STEME); Comparative Table 4): 70% | Damage to the crop plants ZEAMX (Zea mays (corn) (ZEAMX) [4]; [25]): 0%

CCCNc1c(S(C)(=O)=O)ccc(C(=O)c2c(C3CC3)nn(C)c2O)c1C [No. 3]
Herbicidal action DIGSA [5]: 90% | Herbicidal action ECHCG [6, 14]: 90% | pest or weed control at 80 g/ha [2, 15]: 70% | Herbicidal action VIOTR (Viola tricolor (VIOTR)): 90% | Damage to the crop plants ZEAMX (Zea mays (corn) (ZEAMX) [4]; [14]): 30%

Cc1c(C(=O)c2c(C3CC3)nn(C)c2O)ccc(S(C)(=O)=O)c1N1CCCC1 [No. 14]
Herbicidal action ECHCG [6, 22]: 80% | pest or weed control at 320 g/ha [2, 23]: 50% | Damage to the crop plants GLXMA [3, 22]: 10% | Damage to the crop plants TRZAS [11]: 0% | Damage to the crop plants ORYSA [10, 24]: 10% | Herbicidal action SETVI (Setaria viridis (SETVI)): 100%

Cc1nn(C)c(O)c1C(=O)c1ccc(S(C)(=O)=O)c(N2CCCCC2)c1C [S5]
pest or weed control at 80 g/ha ([2]; post-emergence application, 80 g of a.i./ha, Comparative Table 4): 40% | Herbicidal action STEME (Stellaria media (STEME); Comparative Table 4): 20% | Damage to the crop plants ZEAMX (Zea mays (corn) (ZEAMX) [4]; [25]): 10%
